Among the test systems are SW-620 colon; NCI/ADR-RES ovarian; RPMI-8226 leukemia; LOX IMVI melanoma; SF-539 CNS; DU-145 prostate; OVCAR-3 ovarian; OVCAR-4 ovarian; MDA-MB-435; HT29 colon.
Test in all cases: NCI tumour cell line growth inhibition, 48 h

For eleven molecules, GI50 and TGI results are on record in PubChem BioAssay (NCI).

Where “and” joins values, the source holds several entries; their conditions need not be identical. Identical values can stand only once.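 Method: 48-hour compound exposure of cells in 96-well plates, five concentrations, linear interpolation of endpoints. GI50 is the concentration that inhibits growth by half. The concentration for full growth arrest is given as TGI.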

For `Cc1ccc(NC(=O)c2ccnc(C(F)(F)F)c2)cc1-c1cc(OCCO)nc(N2CCOCC2)c1`, the GI50 is 1.55 µM in the test with SW-620 colon; 2.63 µM with NCI/ADR-RES ovarian; 2.7 µM with RPMI-8226 leukemia; 0.147 µM in the test with LOX IMVI melanoma; 2.55 µM in the test on SF-539 CNS; 4.09 µM in the test on DU-145 prostate. Further, the GI50 is 2.62 µM in the test with OVCAR-3 ovarian, 3.95 µM in the test on OVCAR-4 ovarian, 0.391 µM in the test with MDA-MB-435 and 0.413 µM in the test with HT29 colon. Also, the TGI in the test with SW-620 colon is 63.8 µM; in the test with NCI/ADR-RES ovarian, 11.5 µM; with RPMI-8226 leukemia it was more than 100 µM; with LOX IMVI melanoma, 4.26 µM; in the test on SF-539 CNS, 11.8 µM; in the test on DU-145 prostate, 61.2 µM. Besides, the TGI worked out at 12.5 µM in the test on OVCAR-3 ovarian, 21.5 µM with OVCAR-4 ovarian, 1.81 µM in the test on MDA-MB-435 and 14.8 µM in the test on HT29 colon.

Regarding `CCOC(=O)C1CCC/C1=N\N=C(N)N` (stereo not given) (tested in a mixture with another compound), the TGI with SW-620 colon, with NCI/ADR-RES ovarian, in the test on RPMI-8226 leukemia, with LOX IMVI melanoma, with SF-539 CNS and in the test with DU-145 prostate was more than 100 µM each time. Moreover, the TGI in the test with OVCAR-3 ovarian, in the test on OVCAR-4 ovarian, in the test with MDA-MB-435 and in the test on HT29 colon was more than 100 µM each time.

On to `CCN(CC)CCC(=O)Nc1cccc2c1C(=O)c1c(c(O)c3ccccc3c1O)C2=O`, for which the GI50 in the test on SW-620 colon was 6.93 µM; in the test on NCI/ADR-RES ovarian, 3.94 µM; in the test with RPMI-8226 leukemia, 14.2 µM; with LOX IMVI melanoma, 5.77 µM; in the test with SF-539 CNS, 3.38 µM; in the test on DU-145 prostate, 15.5 µM. For the same molecule, the GI50 was 15 µM in the test with OVCAR-3 ovarian, 4.05 µM in the test on OVCAR-4 ovarian, 31 µM with MDA-MB-435 and 19.3 µM with HT29 colon. Also, the TGI with SW-620 colon came to 23 µM; in the test with NCI/ADR-RES ovarian it was 40.4 µM; in the test with RPMI-8226 leukemia it was 43.1 µM; in the test on LOX IMVI melanoma, 23.7 µM; in the test on SF-539 CNS, 13.8 µM; in the test on DU-145 prostate, 61.2 µM. Further, the TGI with OVCAR-3 ovarian was 52.2 µM; in the test with OVCAR-4 ovarian it was 23.1 µM; in the test on MDA-MB-435, more than 100 µM; in the test with HT29 colon, more than 100 µM.

For the molecule `C=C1C(=O)O[C@H]2[C@H]1CC/C(COC(=O)NCCc1ccc(OC)cc1)=C\CC[C@@]1(C)O[C@@H]21`, the GI50 is 2.51 µM in the test on SW-620 colon; 10 µM in the test with NCI/ADR-RES ovarian; 2.85 µM in the test with RPMI-8226 leukemia; 1.38 µM with LOX IMVI melanoma; 1.79 µM in the test on SF-539 CNS; 1.92 µM in the test on DU-145 prostate. In addition, the GI50 in the test on OVCAR-3 ovarian is 2.19 µM; with OVCAR-4 ovarian, 3.41 µM; with MDA-MB-435, 3.53 µM; in the test with HT29 colon, 2.15 µM. For the same molecule, the TGI stood at 6.97 µM in the test on SW-620 colon; 32.6 µM in the test with NCI/ADR-RES ovarian; 7.59 µM in the test with RPMI-8226 leukemia; 2.89 µM in the test on LOX IMVI melanoma; 4.21 µM in the test with SF-539 CNS; 5.16 µM with DU-145 prostate. Further, the TGI in the test with OVCAR-3 ovarian worked out at 5.25 µM; in the test on OVCAR-4 ovarian it was 13.6 µM; in the test on MDA-MB-435, 11.8 µM; in the test on HT29 colon it was 4.71 µM.

With `CN(C)c1cccc2[nH]c(-c3[nH]ncc3Nc3ccnc(N)n3)nc12`, the GI50 in the test with SW-620 colon was less than 0.0141 µM; in the test on NCI/ADR-RES ovarian it was 0.0328 µM; with RPMI-8226 leukemia, 0.281 µM; in the test with LOX IMVI melanoma, less than 0.01 µM; in the test on SF-539 CNS, less than 0.0118 µM; in the test with DU-145 prostate, 0.0175 µM. Further, the GI50 in the test on OVCAR-3 ovarian was less than 0.0121 µM; in the test with OVCAR-4 ovarian it was 0.0349 µM; in the test with MDA-MB-435, 0.0237 µM; in the test with HT29 colon it was 0.0286 µM. Also, the TGI in the test with SW-620 colon is 1.22 µM; in the test with NCI/ADR-RES ovarian, 1.5 µM; with RPMI-8226 leukemia, 0.885 µM; in the test on LOX IMVI melanoma it was 0.14 µM; in the test on SF-539 CNS, 0.0608 µM; in the test on DU-145 prostate, 1.03 µM. Besides, the TGI in the test on OVCAR-3 ovarian stood at 1.09 µM; in the test with OVCAR-4 ovarian, 0.706 µM; in the test on MDA-MB-435 it was 0.719 µM; in the test on HT29 colon, 0.638 µM.

Regarding `O=[N+]([O-])c1cccc(-c2nc3sccn3c2-c2ccnc(NCCCNS(=O)(=O)c3ccc(F)cc3)n2)c1`, the GI50 is 3.95 µM in the test on SW-620 colon; 1.85 µM in the test on NCI/ADR-RES ovarian; 0.677 µM in the test with RPMI-8226 leukemia; 2.57 µM in the test with LOX IMVI melanoma; 3.61 µM in the test on SF-539 CNS; 2.65 µM in the test with DU-145 prostate. Also, the GI50 is 2.31 µM in the test with OVCAR-3 ovarian, 1.65 µM in the test with OVCAR-4 ovarian, 2.55 µM with MDA-MB-435 and 2.9 µM in the test on HT29 colon. For the same molecule, the TGI with SW-620 colon is more than 100 µM; in the test with NCI/ADR-RES ovarian, 7.31 µM; with RPMI-8226 leukemia, 2.94 µM; in the test on LOX IMVI melanoma, 10.4 µM; with SF-539 CNS it was more than 100 µM; in the test with DU-145 prostate, 12.9 µM. The TGI in the test on OVCAR-3 ovarian was 8.49 µM; in the test with OVCAR-4 ovarian, 6.55 µM; with MDA-MB-435, 7.93 µM; with HT29 colon, more than 100 µM.

Consider `CC[C@@]1(O)C(=O)NCc2c1cc1n(c2=O)Cc2cc3cc4c(cc3nc2-1)OCO4`, for which the GI50 with SW-620 colon is 0.352 µM; in the test with NCI/ADR-RES ovarian, 0.236 µM; with RPMI-8226 leukemia, 0.293 µM; with LOX IMVI melanoma it was 0.296 µM; with SF-539 CNS it was 0.374 µM; in the test with DU-145 prostate it was 0.13 µM. Also, the GI50 in the test with OVCAR-3 ovarian was 14.2 µM; in the test with OVCAR-4 ovarian it was 22.5 µM; in the test on MDA-MB-435 it was 2.11 µM; in the test on HT29 colon it was 2.02 µM. Besides, the TGI with SW-620 colon is more than 26.3 µM; in the test with NCI/ADR-RES ovarian, 1.56 µM; with RPMI-8226 leukemia, 9.02 µM; in the test with LOX IMVI melanoma, 18.2 µM; with SF-539 CNS it was 4.57 µM; in the test with DU-145 prostate, 2.02 µM. In addition, the TGI in the test with OVCAR-3 ovarian was more than 95.5 µM; in the test with OVCAR-4 ovarian it was 97.8 µM; with MDA-MB-435, more than 100 µM; in the test with HT29 colon, 37.3 µM.

Take `[N-]=[N+]=Nc1ncc(-c2ccc(C(F)(F)F)cc2)c(NC2CCCCCC2)n1`: the GI50 in the test with SW-620 colon, in the test on NCI/ADR-RES ovarian, with RPMI-8226 leukemia, in the test with LOX IMVI melanoma, in the test with SF-539 CNS and with DU-145 prostate was more than 10 µM throughout. The GI50 with OVCAR-3 ovarian, in the test with OVCAR-4 ovarian, with MDA-MB-435 and in the test with HT29 colon was more than 10 µM in each case. Moreover, the TGI in the test on SW-620 colon, with NCI/ADR-RES ovarian, in the test on RPMI-8226 leukemia, with LOX IMVI melanoma, in the test with SF-539 CNS and in the test on DU-145 prostate was more than 10 µM throughout. In addition, the TGI in the test on OVCAR-3 ovarian, in the test with OVCAR-4 ovarian, in the test on MDA-MB-435 and with HT29 colon was more than 10 µM throughout.

As to `N#C/C(=C\c1cn(-c2ccccc2)c2ccccc12)C(=O)O`, the GI50 is 48.3 µM with SW-620 colon; 57.7 µM in the test on NCI/ADR-RES ovarian; 43 µM with RPMI-8226 leukemia; 3.71 µM with LOX IMVI melanoma; 39.2 µM in the test with SF-539 CNS; 44.2 µM in the test on DU-145 prostate. Further, the GI50 with OVCAR-3 ovarian is 18.8 µM; in the test on OVCAR-4 ovarian, 39.1 µM; in the test on MDA-MB-435, 39.4 µM; in the test on HT29 colon it was 53.1 µM. The TGI in the test on SW-620 colon, in the test with NCI/ADR-RES ovarian, in the test with RPMI-8226 leukemia, with LOX IMVI melanoma, in the test with SF-539 CNS and in the test on DU-145 prostate was more than 100 µM in each case. Also, the TGI was 43.9 µM in the test on OVCAR-3 ovarian, more than 100 µM in the test with OVCAR-4 ovarian, more than 100 µM with MDA-MB-435 and more than 100 µM in the test on HT29 colon.

Regarding `COc1ccc(NC2=C(Sc3nc(C)cc(C)n3)C(=O)N(Cc3ccccc3)C2=O)cc1Cl`, the GI50 was more than 160 µM in the test with SW-620 colon; more than 160 µM in the test on NCI/ADR-RES ovarian; 8.79 µM in the test on RPMI-8226 leukemia; more than 160 µM with LOX IMVI melanoma; more than 160 µM in the test on SF-539 CNS; more than 160 µM with DU-145 prostate. Besides, the GI50 is more than 160 µM with OVCAR-3 ovarian, 107 µM with OVCAR-4 ovarian, 158 µM in the test with MDA-MB-435 and 54.5 µM with HT29 colon. Moreover, the TGI in the test on SW-620 colon, in the test with NCI/ADR-RES ovarian, with RPMI-8226 leukemia, in the test with LOX IMVI melanoma, in the test with SF-539 CNS and in the test with DU-145 prostate was more than 160 µM throughout. Further, the TGI in the test on OVCAR-3 ovarian, in the test on OVCAR-4 ovarian, in the test with MDA-MB-435 and with HT29 colon was more than 160 µM in each case.

For the molecule `COc1cc(N2CCC(N(C)C)CC2)ccc1Nc1ncc(Cl)c(Nc2ccccc2P(C)(C)=O)n1`, the GI50 is 1.33 µM and 0.213 µM with SW-620 colon; 15.6 µM and > 6.15 µM in the test with NCI/ADR-RES ovarian; 3.85 µM and 2.05 µM with RPMI-8226 leukemia; 0.394 µM and 0.175 µM in the test on LOX IMVI melanoma; 1.15 µM and 0.511 µM in the test with SF-539 CNS; 0.972 µM and 0.545 µM in the test on DU-145 prostate. In addition, the GI50 in the test on OVCAR-3 ovarian was 1.73 µM and 0.728 µM; with OVCAR-4 ovarian it was 0.448 µM and 0.615 µM; in the test on MDA-MB-435, 1.94 µM and 0.972 µM; in the test on HT29 colon, 0.261 µM and 0.0794 µM. Also, the TGI is > 26.5 µM and 6.65 µM with SW-620 colon; 98.1 µM and > 10 µM in the test on NCI/ADR-RES ovarian; 21.7 µM and > 7.1 µM in the test on RPMI-8226 leukemia; 1.82 µM and 0.68 µM in the test with LOX IMVI melanoma; 2.97 µM and 2.49 µM in the test with SF-539 CNS; > 25.2 µM and 3.8 µM in the test on DU-145 prostate. Besides, the TGI with OVCAR-3 ovarian was 11.3 µM and 7.01 µM; with OVCAR-4 ovarian it was 10.8 µM and > 10 µM; in the test on MDA-MB-435 it was more than 87.6 µM; in the test with HT29 colon, 2.99 µM and 0.785 µM.
